The nature of assay [1]: Tested in vitro for receptor binding affinity to 5-hydroxytryptamine 1D receptor in bovine caudate using [3H]5-HT radioligand.
Assay [2] in a line: Compound was tested for the inhibition of forskolin-stimulated adenylate cyclase at 5-hydroxytryptamine 1A receptor in guinea pig.

Usually IC50 stands for the concentration that inhibits the measured activity by half. A higher IC50 goes with weaker potency in that assay. One may read the EC50 as the concentration at which the effect is half-maximal. A high value points to lower potency in that assay. As for `CN1CCC[C@@H]1Cc1c[nH]c2ccc(-n3cnc4cc(C#N)ccc43)cc12` [CP-161242], the half-maximal inhibitory concentration (IC50) in assay [1] was 1.3 nM. In assay [2], this compound had a half-maximal effective concentration (EC50) of 26 nM.
In the same order, the values of `CN(C)CCc1c[nH]c2ccc(-n3cnc4cccnc43)cc12` [[2-(5-Imidazo[4,5-b]pyridin-3-yl-1H-indol-3-yl)-ethyl]-dimethyl-amine] are 11 nM and 460 nM.

Values taken from BindingDB's records for doi:10.1016/0960-894X(95)00417-R (1995).
